Assays:
PANC-1 cells = test: CellTiter-Glo luminescent cell viability assay, PANC-1; details: 72 h, first-set screening, mean ± SD, n = 2; for viability at 2.8 µM / viability at 8.3 µM / viability at 25 µM: Homo sapiens, PANC-1, 72 h; for viability at 2.8 µM: read-out: Cell Viability (% of Control) 2.8 µM, PANC-1; for viability at 8.3 µM: read-out: Cell Viability (% of Control) 8.3 µM, PANC-1; for viability at 25 µM: read-out: Cell Viability (% of Control) 25 µM, PANC-1; for Cell Viability (% of Control) 2.8 µM / Cell Viability (% of Control) 8.3 µM / Cell Viability (% of Control) 25 µM: PANC-1
Procedure: Primary fibroblast cultures were prepared from human skin biopsies and maintained in DMEM supplemented with 10% FBS, 1% penicillin-streptomycin, and 1% MEM Non-Essential Amino Acids Solution (Thermo Fisher Scientific). […] All cell lines were cultured in a humidified atmosphere at 37 °C and 5% CO2, passaged twice a week, and the experiments were performed on cells between passage 5 and 15. The cell lines were routinely screened for the absence of mycoplasma infection (DAPI staining).
The effects of the synthesized compounds on cell viability were measured using the CellTiter-Glo® luminescent cell viability assay (Promega, Madison, WI, USA), according to the manufacturer’s instructions. Briefly, cells were seeded onto a flat-bottomed, white 96-well plate (BRANDplates, cat. no.: 781965)), with the following densities: PANC-1: 750 cells/well, Fadu: 2000 cells/well, primary fibroblasts: 2000 cells/well, HEK293T WT: 1000 cells/well, HEK293T CLPP^−/−: 2500 cells/well. After seeding, cells were incubated for a further 48 h before treatment. Cells were treated with the compounds for 72 h. Three concentrations (25.0 µM; 8.3 µM; 2.8 µM) were applied during the initial cell viability screening, while for the determination of dose–response curves, 1.5-fold serially diluted compound concentrations were applied (range: 26 µM–0.7 µM). After treatment, the luminescence signal was recorded using a microplate reader (BioTek Synergy 2 Multi-Mode Reader, BioTek, Winooski, VT, USA).
Data analysis was performed using GraphPad Prism 9.5.0 software (GraphPad Software, San Diego, CA, USA). […] The dose–response curves were generated by four-parameter nonlinear regression, and the IC50 values were determined as the means ± SEM of the best-fit values of 3 independent measurements. The R^2 values were consistently above 0.93, indicating a strong fit of the model to the experimental data (Supplementary S.89). […] Dunnett’s post hoc test was applied to adjust for multiple comparisons, minimizing the likelihood of false positive results. Assumptions for ANOVA, including normality (assessed via QQ plots) and homogeneity of variance (tested using the Brown–Forsythe test), were verified. The following significance levels were applied: * p < 0.05, ** p < 0.01, *** p < 0.001, **** p < 0.0001. […] The tumor selectivity of the compounds was quantitatively characterized by the selectivity index (SI). This parameter was calculated as the ratio of the average best-fit IC50 value for primary fibroblasts and the best-fit IC50 value for the corresponding tumor cells (PANC-1 or Fadu).

Fadu cells = test: CellTiter-Glo luminescent cell viability assay, Fadu; details: 72 h, 72 h, first-set screening, mean ± SD, n = 2; for viability at 2.8 µM / viability at 8.3 µM / viability at 25 µM: Homo sapiens, FaDu; for viability at 2.8 µM: read-out: Cell Viability (% of Control) 2.8 µM, Fadu; for viability at 8.3 µM: read-out: Cell Viability (% of Control) 8.3 µM, Fadu; for viability at 25 µM: read-out: Cell Viability (% of Control) 25 µM, Fadu; for Cell Viability (% of Control) 2.8 µM / Cell Viability (% of Control) 8.3 µM / Cell Viability (% of Control) 25 µM: Fadu

Row | Compound | viability at 2.8 µM (PANC-1 cells) [%] | viability at 8.3 µM (PANC-1 cells) [%] | viability at 25 µM (PANC-1 cells) [%] | viability at 2.8 µM (Fadu cells) [%] | viability at 8.3 µM (Fadu cells) [%] | viability at 25 µM (Fadu cells) [%] | Cell Viability (% of Control) 2.8 µM (PANC-1 cells) | Cell Viability (% of Control) 8.3 µM (PANC-1 cells) | Cell Viability (% of Control) 25 µM (PANC-1 cells) | Cell Viability (% of Control) 2.8 µM (Fadu cells) | Cell Viability (% of Control) 8.3 µM (Fadu cells) | Cell Viability (% of Control) 25 µM (Fadu cells)
1 | NCC#Cc1ccc(CN2C(=O)C3=C(CCN(Cc4ccc(-n5cc(-c6cccc(N)c6)nn5)cc4)C3)N3CCN=C23)cc1 [1a] | 100 ± 5 | 93 ± 7 | 3 ± 2 | 106 ± 2 | 99 ± 2 | 10 |  |  |  |  |  | 
2 | O=C1C2=C(CCN(Cc3ccc(-n4cc(-[c-]5cccc5)nn4)cc3)C2)N2CCN=C2N1Cc1ccc(C#CCO)cc1.[Fe+2].c1cc[cH-]c1 [1b] |  |  |  |  |  |  | 92 ± 0 % of Control | 93 ± 3 % of Control | 95 ± 2 % of Control | 88 ± 4 % of Control | 83 ± 0 % of Control | 68 ± 3 % of Control
3 | O=C1C2=C(CCN(Cc3ccc(-n4cc(-c5ccccc5)nn4)cc3)C2)N2CCN=C2N1Cc1ccc(C#CCO)cc1 [1c] | 95 ± 3 | 87 ± 2 | 88 ± 6 | 79 | 71 | 64 ± 2 |  |  |  |  |  | 
4 | Nc1cccc(-c2cn(-c3ccc(CN4CCC5=C(C4)C(=O)N(Cc4ccc(C#CCO)cc4)C4=NCCN45)cc3)nn2)c1 [1d] | 99 ± 3 | 101 ± 3 | 100 ± 5 | 99 ± 9 | 96 ± 7 | 84 ± 4 |  |  |  |  |  | 
5 | C=CC(=O)Nc1cccc(-c2cn(-c3ccc(CN4CCC5=C(C4)C(=O)N(Cc4ccc(C#CCN)cc4)C4=NCCN45)cc3)nn2)c1 [1e] | 101 ± 7 | 91 ± 1 | 102 | 96 ± 6 | 59 ± 4 | 69 ± 2 |  |  |  |  |  | 
6 | O=C1C2=C(CCN(Cc3ccc(-n4cc(-[c-]5cccc5)nn4)cc3)C2)N2CCN=C2N1Cc1cccc(C#CCO)c1.[Fe+2].c1cc[cH-]c1 [2c] |  |  |  |  |  |  | 94 ± 2 % of Control | 95 ± 2 % of Control | 97 ± 2 % of Control | 79 ± 2 % of Control | 76 ± 4 % of Control | 65 ± 0 % of Control
7 | O=C1C2=C(CCN(Cc3ccc(-n4cc(-c5ccccc5)nn4)cc3)C2)N2CCN=C2N1Cc1cccc(C#CCO)c1 [2d] | 100 ± 8 | 87 ± 1 | 81 | 99 ± 7 | 90 ± 10 | 78 ± 6 |  |  |  |  |  | 
8 | NCC#Cc1ccc(CN2C(=O)C3=C(CCN(Cc4cccc(-n5cc(-[c-]6cccc6)nn5)c4)C3)N3CCN=C23)cc1.[Fe+2].c1cc[cH-]c1 [3a] |  |  |  |  |  |  | 101 ± 7 % of Control | 88 ± 0 % of Control | 0 ± 0 % of Control | 104 ± 5 % of Control | 100 ± 6 % of Control | 0 ± 0 % of Control
9 | O=C1C2=C(CCN(Cc3cccc(-n4cc(-[c-]5cccc5)nn4)c3)C2)N2CCN=C2N1Cc1ccc(C#CCO)cc1.[Fe+2].c1cc[cH-]c1 [3c] |  |  |  |  |  |  | 100 ± 3 % of Control | 98 ± 1 % of Control | 98 ± 1 % of Control | 103 ± 9 % of Control | 99 ± 2 % of Control | 85 ± 5 % of Control
10 | O=C1C2=C(CCN(Cc3cccc(-n4cc(-c5ccccc5)nn4)c3)C2)N2CCN=C2N1Cc1ccc(C#CCO)cc1 [3d] | 85 ± 1 | 55 ± 6 | 46 ± 7 | 87 ± 1 | 29 ± 2 | 23 ± 3 |  |  |  |  |  | 
